Laboratory results taken from the OPERA property sets (Mansouri et al. 2018).

`C=CC(=O)OCC` gave a boiling point of 99.4 °C, a log10 vapour pressure (mmHg) of 1.59 and a melting point of -71.2 °C. For the same compound, the ready biodegradability was “readily biodegradable”.
For `O=c1[nH]c2ccccc2n1CCCN1CCC(n2c(=O)[nH]c3cc(Cl)ccc32)CC1`, the melting point was 242 °C.
`CC(=O)O[C@H]1C[C@@H]2CC[C@@H]3[C@H](CC[C@@]4(C)[C@H]3C[C@H]([N+]3(C)CCCCC3)[C@@H]4OC(C)=O)[C@@]2(C)C[C@@H]1N1CCCCC1.[Br-]` showed a melting point of 228 °C.
Compound `c1ccc2c3c(ccc2c1)-c1cccc2cccc-3c12` has a log10 biodegradation half-life (days) of 2.48 and a melting point of 166 °C.
Work on `CC(Cl)(CCl)CCl` yielded a boiling point of 162 °C.
`CC1COC(=O)O1` (stereo unspecified) gave a boiling point of 242 °C, a log10 vapour pressure (mmHg) of -1.35 and a melting point of -48.8 °C. The ready biodegradability was “readily biodegradable”.
With `CCCCCCC(=O)OCCC` the boiling point was 208 °C and the melting point was -63.5 °C.
With `C[C@@H]1CC[C@@]2(OC1)O[C@H]1C[C@H]3[C@@H]4CC[C@H]5C[C@@H](O)CC[C@]5(C)[C@H]4CC[C@]3(C)[C@H]1[C@@H]2C` the melting point was 197 °C.
In the case of `CC[Si](Cl)(Cl)CC`, the melting point is reported as -96.5 °C.
`CCC1(C)CCCCC1` gave a boiling point of 152 °C.
With `OC(c1ccccc1)(c1ccccc1)C(O)(c1ccccc1)c1ccccc1` the melting point was 182 °C.
With `CC(=O)OCCOCCOCCOC(C)=O` the boiling point was 286 °C and the melting point was -50 °C.
In the case of `c1ccc2n[nH]nc2c1`, the ready biodegradability is reported as “not readily biodegradable”.
Work on `C[C@H]1C(=O)CC[C@@H]2[C@]1(C)CC[C@H]1[C@@]2(C)CC[C@@]2(C)[C@@H]3CC(C)(C)CC[C@]3(C)CC[C@]12C` yielded a melting point of 263 °C.
For `Cc1onc(-c2ccccc2)c1C(=O)N[C@@H]1C(=O)N2[C@@H]1SC(C)(C)[C@@H]2C(=O)O`, the melting point was 188 °C.
For `CC(C)=CCC[C@@H](C)C1=C(O)C(=O)C(C)=CC1=O`, the melting point was 104 °C.
`CCCCC(C)C(C)=O` (stereo unspecified) gave a boiling point of 164 °C.
`CCC(CC)c1ccccn1` gave a boiling point of 195 °C.
`OC(CCl)CCl` gave a boiling point of 176 °C, a log10 vapour pressure (mmHg) of -0.125 and a melting point of -4 °C. For the same compound, the ready biodegradability was “readily biodegradable”.
With `Fc1cccc(F)n1` the boiling point was 125 °C.
Compound `FC1(F)C(F)(F)C(F)(F)C2(F)C(F)(F)C(F)(F)C(F)(F)C(F)(F)C2(F)C1(F)F` (stereo unspecified) has a melting point of -10 °C.
Compound `N#Cc1c2ccccc2cc2ccccc12` has a melting point of 175 °C.
Work on `COc1cccc(CO)c1O` yielded a melting point of 61.5 °C.
Work on `CC[C@]1(O)CC[C@H]2[C@@H]3CCC4=CC(=O)CC[C@@H]4[C@H]3CC[C@@]21C` yielded a melting point of 140 °C.
In the case of `O=C(O)CN(CCN(CC(=O)O)CC(=O)O)CC(=O)O`, the log10 vapour pressure (mmHg) is reported as -11.8 and the ready biodegradability is reported as “not readily biodegradable”.
With `CCOCCOCCOCCO` the boiling point was 256 °C, the log10 vapour pressure (mmHg) was -2 and the melting point was -18.7 °C. The ready biodegradability was “readily biodegradable”.
For `CCC(C)(C)c1ccc(O)c(C(C)(C)CC)c1`, the melting point was 25 °C and the ready biodegradability was “not readily biodegradable”.
Work on `CC1C=CCCC1` (stereo unspecified) yielded a boiling point of 103 °C and a log10 vapour pressure (mmHg) of 1.54.
With `CCOC(C)CO` (stereo unspecified) the boiling point was 140 °C.
With `Fc1ccncc1` the boiling point was 109 °C.
`CC1=CCCC(C)(C)C1CO` (stereo unspecified) gave a boiling point of 215 °C.
In the case of `c1ccc2c(c1)OCCOCCOc1ccccc1OCCOCCO2`, the melting point is reported as 163 °C.
Compound `CC(C)(C)C(O)(CCc1ccc(Cl)cc1)Cn1cncn1` (stereo unspecified) has a log10 vapour pressure (mmHg) of -7.89 and a melting point of 102 °C.
In the case of `CCC(C)NC(C)CC` (stereo unspecified), the boiling point is reported as 135 °C and the ready biodegradability is reported as “not readily biodegradable”.
`O=C(Cl)c1cccc(C(=O)Cl)c1` gave a boiling point of 276 °C and a melting point of 43.5 °C.
In the case of `O=CCC=O`, the melting point is reported as 72 °C.
With `CCCCB(Cl)CCCC` the boiling point was 173 °C.
With `N=C(N)NC(=O)Cc1c(Cl)cccc1Cl` the melting point was 226 °C.
For `CC(=O)OC[C@H]1O[C@@H](n2ncc(=O)[nH]c2=O)[C@H](OC(C)=O)[C@@H]1OC(C)=O`, the melting point was 100 °C.
In the case of `C[C@]12CC[C@H]3[C@@H](CCC4=CC(=O)CC[C@@]43C)[C@@H]1CC[C@@H]2C(=O)CO`, the melting point is reported as 142 °C.
For `C1O[C@@H]1[C@@H]1CO1`, the boiling point was 144 °C and the melting point was 3.5 °C.
Compound `CC(C)C(OC(=O)c1cccnc1)c1ccc(Cl)cc1` (stereo unspecified) has a melting point of 61 °C.
`CCCCCCCCCCCCCCBr` gave a boiling point of 307 °C, a log10 vapour pressure (mmHg) of -3.35 and a melting point of 5.6 °C.
With `CN[C@@H](C)[C@@H](O)c1ccccc1` the melting point was 90.5 °C.
For `CCCC(=O)C1=C(O)C(C)(C)C(O)=C(Cc2c(OC)cc(O)c(C(=O)CCC)c2O)C1=O`, the melting point was 150 °C.
With `O=C(O)c1cc(O)c2ccccc2n1` the melting point was 282 °C.
With `Cc1c(N)cccc1[N+](=O)[O-]` the boiling point was 305 °C and the melting point was 92 °C.
In the case of `Cc1ccc(N=C=Nc2ccc(C)cc2)cc1`, the melting point is reported as 58.5 °C.
With `CCOc1ccc2nc(S)sc2c1` the melting point was 199 °C.
Compound `C[N+](C)(C)CCCl.[Cl-]` has a log10 vapour pressure (mmHg) of -7.12.
Work on `Cc1ccc(N=C=S)cc1` yielded a boiling point of 237 °C and a melting point of 25.5 °C.
`O=[N+]([O-])c1ccccc1O` showed a boiling point of 216 °C, a log10 Henry constant (atm·m³/mol) of -4.89 and a log10 vapour pressure (mmHg) of -0.947. For the same compound, the melting point was 44.8 °C and the ready biodegradability was “not readily biodegradable”.
Work on `CCOP(=S)(OCC)OC(Cl)C(Cl)(Cl)Cl` (stereo unspecified) yielded a log10 Koc (L/kg) of 3.6 and a log10 vapour pressure (mmHg) of -3.1.
Work on `CC(CO)c1ccccc1` (stereo unspecified) yielded a log10 vapour pressure (mmHg) of -1.72 and a melting point of -13 °C.
Compound `O=C(O)C1C2CCC(O2)C1C(=O)O` (stereo unspecified) has a log10 Koc (L/kg) of 2.09, a log10 vapour pressure (mmHg) of -9.8 and a melting point of 144 °C.
Compound `COC(=O)C1C2C=CC(C2)C1C(=O)OC` (stereo unspecified) has a melting point of 38 °C.
For `CCCCCCOC(=O)CCCCCCCC(=O)OCCCCCC`, the melting point was -8 °C.
With `COc1ccc(C(=O)CCC(=O)O)cc1` the melting point was 149 °C.
For `CN(C)c1ccc(-c2ccc(N(C)C)cc2)cc1`, the melting point was 194 °C.
With `CCC(C)(CC)OC(N)=O` the log10 vapour pressure (mmHg) was -0.155 and the melting point was 56 °C.
`CC(=O)CC(C)(C)C` gave a boiling point of 126 °C and a melting point of -64 °C.
Work on `C=COCCOCCO` yielded a boiling point of 196 °C.
Work on `COc1c(Cl)c(Cl)c(Cl)c(Cl)c1Cl` yielded a melting point of 108 °C.
With `Cc1cccc(C#N)c1` the boiling point was 213 °C and the melting point was -23 °C.
